In test [1] the test system is FcγR-mediated phagocytosis of anti-D-sensitized R2R2 RBCs by monocyte-macrophages. The experiment in a line: Monocyte monolayer assay (MMA): inhibition of phagocytosis of anti-D-sensitized R2R2 RBCs. The test is classed as cell-based, human. Particulars: for inhibition of phagocytosis by chemical alone after dialysis: after extensive dialysis. The source says:
Residual and phagocytosed RBCs were distinguished by relative differences in refracted light under phase-contrast microscopy.

Test [2] shares this test system. Particulars: 10^−4M, MMA (Rampersad et al.); cited from earlier work.

By inhibition is commonly meant the drop in the measured response relative to a control, in per cent. Regarding `O[C@H](CS)[C@H](O)CS` (racemic) [DTT, Dithiothreitol], in test [1] (Homo sapiens, Monocyte, free, undialyzed, 10^−2M, read-out: inhibition of phagocytosis by free chemical), the inhibition at 10000 µM is ~30%. For the same compound, the “inhibition of phagocytosis by chemical alone after dialysis” value (from here on “inhibition … after dialysis”) in test [1] is given as “no inhibition”.
On to `Cc1ccc(S(=O)(=O)CS)cc1` [p-toluenesulfonylmethyl mercaptan], for which, in test [1], the “inhibition … after dialysis” value is recorded as “not able to inhibit phagocytosis”. Further, the “inhibition of FcγR-mediated phagocytosis by chemical alone” value in test [2] is recorded as “approximately 70%”.
In the case of `C[CH2][Hg][S]c1ccccc1C(=O)[O-].[Na+]` [thimerosal], the “inhibition … after dialysis” value in test [1] is reported as “no longer inhibits phagocytosis”. Further, the “inhibition of phagocytosis by undialyzed chemical alone” value in test [1] (undialyzed, 10^−5 or 10^−3 mol per L) worked out at 100%.

(Values after US20120321621A1, “INHIBITION OF FcyR-MEDIATED PHAGOCYTOSIS WITH REDUCED IMMUNOGLOBULIN PREPARATIONS” (priority 2008, published 2012).)
